In EP1012175B1, “A PEPTIDE WITH AN AFFINITY FOR CLOTTING FACTOR VIII” (Octapharma AG, priority 1997, dated 2003):
Entries after “also recorded” stand apart in the source; their conditions may differ.

Columns and labels:
[1] = system: pdFVIII (Faktor VIII aus Plasma); experiment: Membrane spot binding test: immobilised peptides incubated with plasma-derived factor VIII (Octavi), detected with anti-FVIII antibodies; set-up: species or system human; conditions: peptide immobilised on membrane; Octavi 240 Units in 10 ml PBS pH 7.0 with 1% BSA, 2 h; binders appear as coloured spots
Protocol: (§1) Die Peptide Seq. Id. No. 55 bis 90 wurden auf einer Membran immobilisiert. Nach Äquilibrieren mit PBS Puffer pH 7.0 wurde eine Membran mit Faktor VIII Octavi® (240 Units in 10 ml PBS pH 7.0 mit 1% BSA), eine andere mit Kogenate® (250 U in 10 ml PBS, pH 7.0 mit 1% BSA) und eine nur mit PBS, pH 7.0 mit 1% BSA für zwei Stunden inkubiert. Die mit den Peptiden besetzten Membranen wurden sorgfältig mit PBS Puffer pH 7.0 gewaschen und anschließend mit den Anti-FVIII Antikörpern (Chemicon International Inc., MAB038, Sera-Lab MAS 530, MAS 531, MAS 532) für eine Stunde versetzt. Nach Waschen und Inkubieren mit Anti-Maus-IgG/alkalische Phosphatase Konjugat (1:1000, Sigma Chemicals, A-4338) wurde mit Hilfe von NBT und BCIP in 0,1 M Trispuffer, pH 9,2, entwickelt. Faktor VIII bindende Peptide erschienen als gefärbte Spots. Die Kontrollmembran (nur mit PBS pH 7.0 ohne Faktor VIII) wurde mit den beiden anderen verglichen.

[2] = system: rekombinanten Faktor VIII; experiment: Membrane spot binding test: immobilised peptides incubated with recombinant factor VIII (Kogenate), detected with anti-FVIII antibodies; conditions: peptide immobilised on membrane; Kogenate 250 U in 10 ml PBS pH 7.0 with 1% BSA, 2 h; binders appear as coloured spots
Protocol: as §1

[3] = system: rekombinantem Faktor VIII aus Kogenate®; experiment: Affinity chromatography of recombinant factor VIII (Kogenate) on peptide membranes; eluates analysed by Western blot; assay type: binding; conditions: for Western Blot der Eluate: eluate of rFVIII (Kogenate) run, control membrane also positive; for Elutionspeak: rFVIII (Kogenate), elution with 0,1 M Glycin pH 3.0, compared with ßAla-ßAla control membrane
Description: (§2) Aus Membranen, auf die die jeweiligen Peptide immobilisiert wurden, wurden jeweils 30 Scheiben mit einem Durchmesser von 11 mm ausgestanzt. Diese wurden in eine HR 10 Säule (Pharmacia Biotechnology, Uppsala, Schweden) gepackt und zwischen zwei Stempeln fixiert.
(§3) Für alle chromatographischen Experimente wurde das Chromatographiesystem ProSys (Biosepra Inc. Marlborough, USA) verwendet.
(§4) PBS Puffer pH 7.0 wurde als Äquilibrierungs- und Waschpuffer verwendet. Für die Elution wurde ein 0,1 M Glycinpuffer pH 3.0 angewandt. Die Flußgeschwindigkeit betrug bei allen Versuchen 0,1 ml/min.
Die Bindung von rekombinantem Faktor VIII wurde mittels Kogenate® (Firma Bayer) untersucht. Jeweils 400 µl des Präparates (200 Units) wurden mit 1.400 µl destilliertem Wasser verdünnt und anschließend mit einer Flußrate von 0,1 ml/min auf den Affinitätsträger aufgetragen. Das Waschen erfolgte wiederum mit PBS, pH 7.0 und die darauf folgende Elution mit 0,1 M Glycin, pH 3.0. Die Fraktionen wurden mittels SDS-Page unter reduzierenden Bedingungen und Western-Blot analysiert.
(§5) Der Durchlauf und die Eluate aller Läufe wurden gesammelt und mittels SDS-PAGE unter reduzierenden Bedingungen und Western-Blot analysiert.
Für die Auftrennung wurden 4 bis 20% Tris-Glycin Gele von Novex verwendet. […] Nach der Trennung wurden die Gele silbergefärbt und eingescannt.
Nach Beendigung der elektrophoretischen Trennung wurden die Gele auf eine Nitrocellulose Membran bei 200 mA konstant für zwei Stunden elektrogeblottet. Anschließend wurde die Membran mit PBS + 3% BSA für zwei Stunden blockiert. […] Die Entwicklung erfolgte mit 0,1 M Tris, pH 9.2, NBT und BCIP.
(§6) Die Affinitätschromatographie wurde wie im Beispiel 1 beschrieben, durchgeführt.

pdFVIII = experiment: Affinity chromatography of pdFVIII on peptide membranes; eluates analysed by SDS-PAGE and Western blot; assay type: binding, human; conditions: for Banden in der SDS-PAGE unter reduzierenden Bedingungen und Silberfärbung / Western Blot des Eluates: eluate of pdFVIII run; for Banden in der SDS-PAGE unter reduzierenden Bedingungen und Silberfärbung / Elutionspeak: compared with (βAla)2 control membrane; for Western Blot des Eluates: control membrane weakly positive; for Eignung für die Affinitätschromatographie von pdFVIII: general statement of the description; for Elutionspeak: pdFVIII, elution with 0,1 M Glycin pH 3.0
Description: as §2, §3, §4
Lyophilisierter Faktor VIII aus Plasma wurde in 11 ml destilliertem Wasser zu einer Konzentration von 90 Units/ml aufgelöst. Davon wurden jeweils 4 ml mit einer Flußrate von 0,1 ml/min aufgetragen. Anschließend wurden die Affinitätsträger mit PBS-Puffer pH 7.0 gewaschen bis das UV Signal (280 nm) wieder die Basislinie erreichte. Das gebundene Material wurde mit 0,1 M Glycin pH 3.0 eluiert. Die gesammelten Fraktionen wurde mittels SDS-Page unter reduzierenden Bedingungen und Western Blot analysiert. Auf diese Weise wurden Peptide und der ßAla-ßAla-Blank auf ihre Fähigkeit Faktor VIII aus dem Octavipräparat zu binden untersucht.
as §5
Für die Auftrennung wurden 4 bis 20% Tris-Glycin Gele von Novex verwendet. Die Proben wurden mit SDS-Probepuffer (1,5 M Tris HCl pH 8.45, 1,2 ml Glycerin, 0,4 g SDS, 0,1% Coomassie Blue, 0,1% Phenol Rot pro 10 ml), und 5% ß-Mercaptoethanol versetzt und über Nacht bei 4°C inkubiert. Nach der Trennung wurden die Gele silbergefärbt und eingescannt.
Nach Beendigung der elektrophoretischen Trennung wurden die Gele auf eine Nitrocellulose Membran bei 200 mA konstant für zwei Stunden elektrogeblottet. Anschließend wurde die Membran mit PBS + 3% BSA für zwei Stunden blockiert. Nach Waschen mit PBS Puffer erfolgte die Zugabe der Anti-FVIII Antikörpermischung (Chemicon International Inc., MAB038, Sera-Lab MAS 530, MAS 531, MAS 532) für zwei Stunden. Nach Waschen mit PBS wurde mit Anti Maus IgG alkalische Phosphatase (1:1000, Sigma Chemicals, A-3438) für eine Stunde inkubiert. Die Entwicklung erfolgte mit 0,1 M Tris, pH 9.2, NBT und BCIP.
as §6

Substance | Bindung zu pdFVIII (Faktor VIII aus Plasma) [1] | Bindung von rekombinantem Faktor VIII [2] | other results
89 (EYKSWEYC) [compound 89] | auffallende Affinität; also recorded: Bindung zu pdFVIII | auffallende Affinität | 
EYKSWEEF [Seq. Id. No. 90, Peptid, 8 Aminosäuren] | auffallende Affinität; also recorded: Bindung zu pdFVIII | auffallende Affinität | Western Blot der Eluate [3]: positiv; Elutionspeak [3]: deutlich größer
76 (EWKSEFEF) [compound 76] | Bindung zu pdFVIII |  | 
77 (EWKSWEYC) [compound 77] | Bindung zu pdFVIII |  | 
78 (EWKSWEEF) [compound 78] | auffallende Affinität; also recorded: Bindung zu pdFVIII | auffallende Affinität | 
66 (VMKSWEEF) [compound 66] | auffallende Affinität; also recorded: Bindung zu pdFVIII | auffallende Affinität; also recorded: binden rekombinanten Faktor VIII | Western Blot der Eluate [3]: positiv; Eignung für die Affinitätschromatographie von rFVIII (rekombinantem Faktor VIII) ([3]; general statement of the description): eignen sich insbesondere; Elutionspeak [3]: deutlich größer; Banden in der SDS-PAGE unter reduzierenden Bedingungen und Silberfärbung (pdFVIII): intensiver gefärbte Banden; Western Blot des Eluates (pdFVIII): positiv; Eignung für die Affinitätschromatographie von pdFVIII (pdFVIII): eignen sich insbesondere; Elutionspeak (pdFVIII): größere Elutionspeaks
61 (VMKSCEYC) [compound 61] | Bindung zu pdFVIII | keinen rekombinanten Faktor VIII | 
84 (EYIKWEEF) [compound 84] | auffallende Affinität | auffallende Affinität | 
72 (EWIKWEEF) [compound 72] | auffallende Affinität; also recorded: Bindung zu pdFVIII | auffallende Affinität; also recorded: binden rekombinanten Faktor VIII | Banden in der SDS-PAGE unter reduzierenden Bedingungen und Silberfärbung (pdFVIII): intensiver gefärbte Banden; Western Blot des Eluates (pdFVIII): positiv; Eignung für die Affinitätschromatographie von pdFVIII (pdFVIII): eignen sich insbesondere; Elutionspeak (pdFVIII): größere Elutionspeaks
71 (EWIKWEYC) [compound 71] | Bindung zu pdFVIII | binden rekombinanten Faktor VIII | 
68 (EWIKCEEF) [compound 68] |  | binden rekombinanten Faktor VIII | 
